Laboratory results: patent publication US20040191842A1, “Chemopreventive and therapeutic aspects of polyphenolic compositions and assays” (Medical College of Georgia Research Institute, Inc., priority 2002, published 2004)
“And” between values parts separate entries of the source, which are not always exact repeats. Identical values can stand only once.

Tests used:
caspase 3 [1] = assay: Caspase 3 activity assay, mammary epithelial cells; type: cell-based, human; conditions: 100 μM EGCG, 24 hours
Procedure: (§1) Caspase 3 activity assay. The Caspase 3 Apoptosis Detection Kit was purchased from Santa Cruz Biotech. Inc. In a 24 well tissue culture plate, 10^5 cells/well of control or treated cells in triplicates were plated. […] To each well, 100 μl of 2×reaction buffer was added with 10 mM DTT. Finally, 5 μl of DEVD-AFC substrate was added to each well containing cell lysates. The reaction mixtures were incubated for 1 hour at 37° C. The caspase 3 activity in each well was measured using a fluorescence plate reader set for 405 nanometer (nm) excitation and 505 nm emission.

caspase 3 [2] = assay: Caspase 3 activity assay, MCF7(C) caspase 3+ cells; type: cell-based, human; conditions: increasing EGCG or 0.2 mg/ml GTPPs, 24 h
Procedure: as §1, with “of” for “of control or treated”, “[…]” for “10 mM”, “fluorescence microplate” for “fluorescence plate”, “405 nm” for “405 nanometer (nm)”

MCF7 (C) cells = assay: Morphological analysis, MCF7(C) cells; type: cell-based, human; conditions: EGCG, 48 hours
Source text: Cell lines and cell culture. The normal human keratinocytes (NHEK CC-2507) were purchased from Cambrex (East Rutherford, N.J.) and maintained in KGM-2 medium (Cambrex). The OSC2 cell line was previously described (Osaki et al., Eur J Cancer B Oral Oncol 1994; 30 B:296-301). The breast carcinoma MCF7 cell line was purchased from American Type Culture Collection. The MCF7(C) caspase+cell line “7-3-28 ” was established and tested as previously described (Janicke et al., J Biol Chem 1998; 273:9357-60, Blanc et al., Cancer Res 2000; 60:4386-90). These tumor cells were maintained in 45% Dulbecco's Modified Eagle's Medium (DMEM), 45% Ham's F12 medium and 10% fetal calf serum, 100 I.U/ml penicillin, 100 μg/ml streptomycin and 5 μg/ml hydrocortisone. All cell cultures were maintained in a 37° C. incubator with 5% CO2. Light microscopic photographs were taken with a SPOT RT digital camera system (Diagnostic Instruments) linked to a Nikon Phase Contrast-2 microscope at an original magnification of 200×.

OSC-2 cells = assay: Intracellular ROS levels (DFDA assay), OSC-2 cells; type: cell-based, human
Procedure: (§2) Measurement of intracellular ROS levels. The ROS assay measures the accumulation of intracellular ROS levels. The non-fluorescent dye DFDA passively diffuses into cells, where the acetates are cleaved by intracellular esterases. […] Thus, values of the fluorescence in the cell cultures are constantly rising in this assay. Cells (1.5×10^4 cells/well) were incubated with Hallam's physiological saline (HPS) containing DFDA (10 μM) in a 96-well microplate for 30 minutes at 37° C. After the incubation, cells were washed three times with HPS and then incubated with HPS containing EGCG (15-200 μM) or diamide (5 mM) for the indicated time periods. The intracellular ROS levels were measured by using a fluorescence plate reader (BIO-TEK FL600, Bio-Tek Instruments, Inc., Winooski, Vt.), at an excitation wavelength of 485 nm and an emission wavelength of 530 nm.
as §2, with “assay (DFDA assay)” for “assay”, “dye dichlorofluorescein diacetate (DFDA)” for “dye DFDA”, “this assay due to the accumulation of ROS.” for “this assay.”, “EGCG (50-200” for “EGCG (15-200”, “indicated times.” for “indicated time periods.”

OSC-4 cells [3] = assay: MTT assay (SDH activity), OSC-4 cells; type: cell-based, human; conditions: 24 hours
Procedure: MTT [3-(4,5-dimethylthiazol-2-yl)-2,5-diphenyl tetrazolium bromide] assay. This method directly detects the activity of mitochondrial succinate dehydrogenase (SDH). Changes in SDH activity is a measurement of cell viability when stress is introduced in cell culture through chemical or physical means. Cells (1.5×10^4 cells/well) were seeded in a 96-well microplate and treated with the indicated doses of EGCG for 24 hours. After the treatment, the cells in each well were washed with 200 μl of phosphate-buffered saline (PBS), incubated with 100 μl of 2% MTT in a solution of 0.05 M Tris, 0.5 mM MgCl2, 2.5 mM CoCl2, and 0.25 M disodiumn succinate as substrate (Sigma) at 37° C. for 30 minutes. Cells were fixed in situ by the addition of 100 μl of 4% formalin in 0.2 M Tris (pH 7.7), and after a 5 minute incubation at room temperature liquid was removed and the wells were allowed to dry. Each well was rinsed with 200 μl water and cells were solubilized by the addition of 100 μl of 6.35% 0.1 N NaOH in DMSO. The colored formazan product was measured by a Thermo MAX micro plate reader (Molecular Devices Corp., Sunnyvale, Calif.) at a wavelength of 562 nm. Experiments were repeated three times with triplicate samples for each experiment.

OSC-4 cells [4] = assay: BrdU incorporation assay, OSC-4 cells; type: cell-based, human; conditions: for DNA synthesis (BrdU assay): 24 hours
Procedure: (§3) DNA synthesis assay. DNA synthesis was analyzed by a BrdU Cell Proliferation Assay Kit (Oncogene Research Products, Boston, Mass.). […] After the treatment, cells were labeled with BrdU for 2 hours at 37° C. and reacted with anti-BrdU antibody. Unbound antibody in each well was removed by rinsing, and horseradish peroxidase-conjugated goat anti-mouse antibody was added to each well. The color reaction was visualized according to the protocol provided by the manufacturer.
as §3, with “cell proliferation assay kit” for “Cell Proliferation Assay Kit”, “anti-mouse IgG” for “anti-mouse”, “reaction to visualize the secondary antibody” for “reaction”, “carried out” for “visualized”

[5] = system: salivary acenar cells (AC) and duct cells (DC), HSG and OSC tumor cells; assay: Protection of salivary gland cells from CDDP and UVC (SDH, BrdU); conditions: pretreatment of EGCG
Source text: Human immortalized salivary acenar cells (AC) and duct cells (DC), along with human salivary gland tumor cells (HSG, a radiation-resistant cell line) and oral squamous carcinoma cells (OSC) were either treated by CDDP or irradiated by UVC with or without the presence of EGCG, followed by determination of the mitochondrial succinate dehydrogenase (SDH) activity, a measurement of mitochondrial damage and BrdU incorporation determination.

[6] = cited from earlier work

SMILES: O=C(O[C@@H]1Cc2c(O)cc(O)cc2O[C@@H]1c1cc(O)c(O)c(O)c1)c1cc(O)c(O)c(O)c1 [EGCG, (−)-epigallocatechin-3-gallate]
- increase in caspase 3 activity compared to control (caspase 3 [1]): 3 fold
- caspase 3 activation (caspase 3 [2]): demonstrated activated caspase 3
- morphology (MCF7 (C) cells): significantly reduced the cell number and produced cell blebbing
- intracellular ROS levels vs controls (OSC-2 cells; 50 μM EGCG, 60 minute exposure): remained comparable to the controls
- intracellular ROS levels vs control (OSC-2 cells; 50 or 200 μM EGCG, beyond 120 minutes): remained significantly higher than the control levels
- H2O2 concentration producing ROS equivalent to 200 μM EGCG (OSC-2 cells; first hour): 50 µM
- mitochondrial SDH activity (OSC-4 cells [3]; 50 μM EGCG): did not show significant changes
- SDH activity, of untreated control (OSC-4 cells [3]; 200 μM EGCG): less than 75%
- mitochondrial SDH activity (OSC-4 cells [3]; 200 μM EGCG): significantly reduced SDH activity and DNA synthesis
- DNA synthesis (BrdU assay) (OSC-4 cells [4]; 50 μM EGCG): did not show significant changes
- BrdU incorporation, of control levels (OSC-4 cells [4]; 200 μM EGCG): approximately 75%
- reduction of BrdU incorporation (OSC-4 cells [4]; 200 μM EGCG, 24-hour period): approximately 25%
- DNA synthesis (BrdU assay) (OSC-4 cells [4]; 200 μM EGCG): significantly reduced SDH activity and DNA synthesis
- protection from CDDP and UVC cytotoxicity [5]: significantly protected the normal salivary gland cells from CDDP and UVC, but not the tumor cells
- EGCG secreted from human saliva ([6]; after two to three cups of green tea): ≤ 50 μM and ≤ 22.9 μg/ml
- absorption through the oral mucosa ([6]; humans): rapidly absorbed through the oral mucosa
